Values of other authors as cited in US10568936B2, “Pharmaceutical composition for transmucosal delivery and methods for treating diabetes in a subject in need thereof” (Eastgate Pharmaceuticals Inc., priority 2014, dated 2020).

Legend:
[1] = eutectic mixture with menthol

C[C@]12CC[C@H]3[C@@H](CCC4=CC(=O)CC[C@@]43C)[C@@H]1CC[C@@H]2O [testosterone]
Increase in the solubility of testosterone in an aqueous ethanol vehicle [1]: 2.8 fold
Increase in the flux of testosterone (eutectic mixture with menthol): 2.8 fold
Further increase in skin flux (high concentration of menthol): eight times the base line
